Laboratory results: patent publication US4965280A, “Antifungal carbinols” (E. I. Du Pont de Nemours and Company, priority 1989, dated 1990)

Tests used:
Assay in all cases: Test E
[1] = system: BONANZA BARLEY; assay type: in vivo, Hordeum vulgare cv. Bonanza
[2] = system: CMN CHICKWEED; assay type: in vivo, Stellaria media
[3] = system: BLACKGRASS; assay type: in vivo, Alopercurus mysuroides
Text: Seeds of the following crops and weeds are sown into 15 cm pots containing Sassafras sandy loam soil: wheat (Triticum aestivum cv. Park), barley (Hordeum vulgare cv. Bonanza), sugarbeet (Beta vulgaris cv. USH-11), rapeseed (Brassica napus cv. Jet Neuf), black nightshade (Solanum nigrum), chickweed (Stellaria media), lambsquarter (Chenopodium album), Galium aparine, knotweed (Polygonum aviculare), Kochia scoparia, Matricaria indora, redroot pigweed (Amaranthus retroflexus), smartweed (Polygonum persicaria), speedwell (Veronica persica), wild buckwheat (Polygonum convolvulus), wild mustard (Brassica spp.), wild radish (Raphanus raphanistrum), annual bluegrass (PO annua), annual ryegrass (Lolium multiflorum), blackgrass (Alopercurus mysuroides), green foxtail (Setaria viridis), and wild oats (Avena fatua). Compounds are formulated in a nonphytotoxic solvent and applied to the plants as a foliar spray or applied to the soil surface. Plants are treated at two stages: preemergence, or postemergence when the sugarbeets are at the 2-3 true leaf stage. Plants are grown in a temperature-controlled greenhouse for the duration of the test.
Weed control and crop injury are evaluated visually at 3-4 weeks after compound application, using a scale of 0 to 100%, where 0=no injury and 100=complete death of the plant. All plants are rated with respect to untreated plants (checks) grown in the greenhouse under identical conditions to the treated plants.

[4] = system: WILD OATS; assay type: in vivo, Avena fatua
[5] = system: SNTLS CHAMOMILE; assay type: in vivo, Matricaria indora
[6] = system: ITALN. RYEGRASS; assay type: in vivo, Lolium multiflorum
[7] = system: KOCHIA; assay type: in vivo, Kochia scoparia

Compound | plant response ([1]; POSTEMERGENCE 0064 GM/HA) [%] | plant response ([1]; POSTEMERGENCE 0125 GM/HA) [%] | plant response ([1]; POSTEMERGENCE 0250 GM/HA) [%] | plant response ([1]; POSTEMERGENCE 0500 GM/HA) [%] | plant response ([1]; PREEMERGENCE 0500 GM/HA) [%] | plant response ([2]; POSTEMERGENCE 0064 GM/HA) [%] | plant response ([2]; POSTEMERGENCE 0125 GM/HA) [%] | plant response ([2]; POSTEMERGENCE 0250 GM/HA) [%] | plant response ([2]; POSTEMERGENCE 0500 GM/HA) [%] | plant response ([2]; PREEMERGENCE 0500 GM/HA) [%] | plant response ([3]; POSTEMERGENCE 0064 GM/HA) [%] | plant response ([3]; POSTEMERGENCE 0125 GM/HA) [%] | plant response ([3]; POSTEMERGENCE 0250 GM/HA) [%] | plant response ([3]; POSTEMERGENCE 0500 GM/HA) [%] | plant response ([3]; PREEMERGENCE 0500 GM/HA) [%] | plant response ([4]; POSTEMERGENCE 0064 GM/HA) [%] | plant response ([4]; POSTEMERGENCE 0125 GM/HA) [%] | plant response ([4]; POSTEMERGENCE 0250 GM/HA) [%] | plant response ([4]; POSTEMERGENCE 0500 GM/HA) [%] | plant response ([4]; PREEMERGENCE 0500 GM/HA) [%] | also measured
C=C(c1ccc(F)cc1)C(O)(Cn1cncn1)c1ccc(F)cc1F (centres unmarked) [Example 4, 2-(2,4-Difluorophenyl)-3-(4-fluorophenyl)-1-(1H-1,2,4-triazol-1-yl)-3-buten-2-ol] | 20 | 30 | 40 | 60 | 100 | 0 | 0 | 0 | 0 | 0 | 0 | 20 | 20 | 50 | 90 | 0 | 0 | 0 | 30 | 90 | plant response ([5]; POSTEMERGENCE 0064 GM/HA): 30%; plant response ([5]; POSTEMERGENCE 0125 GM/HA): 50%; plant response ([5]; POSTEMERGENCE 0250 GM/HA): 70%; plant response ([5]; POSTEMERGENCE 0500 GM/HA): 85%; plant response ([5]; PREEMERGENCE 0500 GM/HA): 100%; plant response ([6]; POSTEMERGENCE 0064 GM/HA): 0%; plant response ([6]; POSTEMERGENCE 0125 GM/HA): 0%; plant response ([6]; POSTEMERGENCE 0250 GM/HA): 30%; plant response ([6]; POSTEMERGENCE 0500 GM/HA): 80%; plant response ([6]; PREEMERGENCE 0500 GM/HA): 70%; plant response ([7]; POSTEMERGENCE 0064 GM/HA): 0%; plant response ([7]; POSTEMERGENCE 0125 GM/HA): 30%; plant response ([7]; POSTEMERGENCE 0250 GM/HA): 70%; plant response ([7]; POSTEMERGENCE 0500 GM/HA): 90%; plant response ([7]; PREEMERGENCE 0500 GM/HA): 100%
C=C(c1ccc(Cl)cc1Cl)C(O)(Cn1cncn1)c1ccccc1F (centres unmarked) [Example 107] | – | – | – | – | – | – | – | – | – | – | – | – | – | – | – | – | – | – | – | – | plant response ([1]; PREEMERGENCE 0250 GM/HA): 80%; plant response ([2]; PREEMERGENCE 0250 GM/HA): 0%; plant response ([3]; PREEMERGENCE 0250 GM/HA): 20%; plant response ([4]; PREEMERGENCE 0250 GM/HA): 0%; plant response ([5]; PREEMERGENCE 0250 GM/HA): 70%; plant response ([6]; PREEMERGENCE 0250 GM/HA): 0%; plant response ([7]; PREEMERGENCE 0250 GM/HA): 0%
C=C(c1ccc(F)cc1)C(O)(Cn1cncn1)c1ccccc1F (centres unmarked) [Example 644] | 0 | 20 | 20 | 40 | 50 | 0 | 0 | 0 | 0 | 20 | 0 | 0 | 30 | 50 | 20 | 0 | 0 | 20 | 20 | 20 | plant response ([5]; POSTEMERGENCE 0064 GM/HA): 20%; plant response ([5]; POSTEMERGENCE 0125 GM/HA): 50%; plant response ([5]; POSTEMERGENCE 0250 GM/HA): 50%; plant response ([5]; POSTEMERGENCE 0500 GM/HA): 90%; plant response ([5]; PREEMERGENCE 0500 GM/HA): 100%; plant response ([6]; POSTEMERGENCE 0064 GM/HA): 0%; plant response ([6]; POSTEMERGENCE 0125 GM/HA): 20%; plant response ([6]; POSTEMERGENCE 0250 GM/HA): 50%; plant response ([6]; POSTEMERGENCE 0500 GM/HA): 40%; plant response ([6]; PREEMERGENCE 0500 GM/HA): 0%; plant response ([7]; POSTEMERGENCE 0064 GM/HA): 0%; plant response ([7]; POSTEMERGENCE 0125 GM/HA): 0%; plant response ([7]; POSTEMERGENCE 0250 GM/HA): 50%; plant response ([7]; POSTEMERGENCE 0500 GM/HA): 70%; plant response ([7]; PREEMERGENCE 0500 GM/HA): 100%
